Patent publication US5760048A, “Alpha-mercaptoacrylic acid derivatives having calpain inhibitory activity” (Warner-Lambert Company, priority 1996, dated 1998)
Where two headings read alike, the source gives them in different places.

Assays:
thermolysin = molecular target: T1, thermolysin (Bacillus thermoproteolyticus, UniProt P00800); assay: Selectivity: thermolysin protease assay (casein substrate); type: biochemical
T1 construct: purchased Sigma P1512; host or cells: Bacillus thermoproteolyticus
Method: (§1) Calpain I was assayed as described (α-mercaptoacrylic acid). Ten to 20 ng papain (papaya latex, Sigma, P3125), 1.25 μg trypsin (bovine pancreas, Sigma, T8003), and 5 μg thermolysin (Bacillus thermoproteolyticus, Sigma, P1512) were assayed using 0.5 mg/mL casein as substrate in the microplate format (250 μL reaction volume), essentially as described by Buroker-Kilgore M., Wang K. K. W., Anal Biochem 1993;208:387-392. Inhibition of these proteases are presented as IC50.

papain = molecular target: T2, papain (Carica papaya, UniProt P00784); assay: Selectivity: papain protease assay (casein substrate); type: biochemical; conditions: Table II; read-out: Inhibitory Activity of Thiol-Acrylates, Papain (IC50)
T2 construct: purchased Sigma P3125; host or cells: papaya latex
T2 sequence (P00784 134-345): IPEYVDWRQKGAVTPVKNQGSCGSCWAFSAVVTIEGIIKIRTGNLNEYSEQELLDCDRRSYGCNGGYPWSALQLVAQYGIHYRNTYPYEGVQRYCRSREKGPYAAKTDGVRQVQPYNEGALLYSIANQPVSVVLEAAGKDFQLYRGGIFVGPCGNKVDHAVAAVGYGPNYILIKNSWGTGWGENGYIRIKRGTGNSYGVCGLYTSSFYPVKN
Method: as §1

trypsin = molecular target: T3, trypsin (Bos taurus, UniProt P00760); assay: Selectivity: trypsin protease assay (casein substrate); type: biochemical, bovine; conditions: Table II; read-out: Inhibitory Activity of Thiol-Acrylates, Trypsin (IC50)
T3 construct: purchased Sigma T8003; host or cells: bovine pancreas
T3 sequence (P00760 24-246): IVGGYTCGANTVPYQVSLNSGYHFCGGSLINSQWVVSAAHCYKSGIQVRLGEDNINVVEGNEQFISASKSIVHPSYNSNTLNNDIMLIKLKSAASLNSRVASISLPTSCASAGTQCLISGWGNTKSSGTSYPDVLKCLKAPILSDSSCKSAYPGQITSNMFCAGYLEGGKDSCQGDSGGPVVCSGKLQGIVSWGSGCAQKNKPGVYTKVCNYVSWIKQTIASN
Method: as §1

calpain I = molecular target: T4, calpain I (Homo sapiens, UniProt P07384); assay: Assay of Calpain Activity (casein substrate, microplate, Coomassie blue); type: biochemical; parameters: Calpain I was purified from human erythrocytes; from tissue; host or cells: human erythrocytes
T4 sequence (P07384 1-714): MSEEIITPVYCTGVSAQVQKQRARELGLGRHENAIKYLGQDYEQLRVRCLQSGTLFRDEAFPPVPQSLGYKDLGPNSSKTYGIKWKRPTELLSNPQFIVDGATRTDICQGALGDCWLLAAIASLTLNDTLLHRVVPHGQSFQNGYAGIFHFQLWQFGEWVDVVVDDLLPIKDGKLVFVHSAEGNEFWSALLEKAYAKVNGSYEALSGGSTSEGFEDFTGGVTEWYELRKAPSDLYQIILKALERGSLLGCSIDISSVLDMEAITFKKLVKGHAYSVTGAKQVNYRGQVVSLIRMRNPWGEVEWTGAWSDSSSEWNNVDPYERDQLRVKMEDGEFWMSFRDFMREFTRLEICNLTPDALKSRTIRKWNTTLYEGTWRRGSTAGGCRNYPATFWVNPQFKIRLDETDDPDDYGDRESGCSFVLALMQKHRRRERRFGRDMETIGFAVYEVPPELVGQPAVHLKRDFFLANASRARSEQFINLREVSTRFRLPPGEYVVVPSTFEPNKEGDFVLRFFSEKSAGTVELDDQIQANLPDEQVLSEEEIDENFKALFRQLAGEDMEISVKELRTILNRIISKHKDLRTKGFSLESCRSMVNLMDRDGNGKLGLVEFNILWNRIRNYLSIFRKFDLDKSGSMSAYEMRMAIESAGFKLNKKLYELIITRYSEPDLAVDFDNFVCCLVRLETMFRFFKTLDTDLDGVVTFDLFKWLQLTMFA
T4 sequence (P04632 1-268 partner): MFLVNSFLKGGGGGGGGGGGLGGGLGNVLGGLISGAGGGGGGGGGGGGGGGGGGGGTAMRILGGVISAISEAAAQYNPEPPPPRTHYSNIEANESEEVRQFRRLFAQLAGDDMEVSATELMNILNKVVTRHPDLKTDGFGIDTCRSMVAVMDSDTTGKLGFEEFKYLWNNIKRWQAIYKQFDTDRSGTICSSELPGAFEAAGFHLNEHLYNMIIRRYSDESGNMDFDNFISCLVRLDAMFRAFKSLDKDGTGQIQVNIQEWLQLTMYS
Method: In 250 μL of reaction mixture, substrate casein (0.5 mg/mL) was incubated with 0.01 unit (80-120 ng) calpain I, 20 mM dithiothreitol (DTT), 50 mM Tris-HCl (pH 7.4 at 25° C.), and 4 mM CaCl2 at 25° C. for 60 minutes. Two 100-μL aliquots were taken for Coomassie blue binding analysis to quantify the remaining casein.
Calpain I was assayed as described (α-mercaptoacrylic acid). […] Inhibition of these proteases are presented as IC50.

[1] = tested on: Fetal rat cortical cell cultures; assay: Assay of Lactate Dehydrogenase (LDH): NMDA-induced LDH release; type: cell-based; conditions: FIG. II; for block of NMDA-induced LDH release (in words): 500 μM NMDA, 200 μM calpain inhibiting compound
Method: Seventeen-day-old cultures were pretreated with 200 μM calpain inhibiting compound (when added) for 1 hour before treatment of 500 μM N-methyl-D-aspartate (NMDA) for 30 minutes (in the absence or the presence of the compound).

[2] = tested on: spectrin breakdown in rat cortical cell cultures; assay: Spectrin Breakdown Measurement (immunoblot); type: cell-based; conditions: NMDA-treated cortical cells, 4-hour post-NMDA
Method: Rat cortical cell cultures were treated with NMDA in the absence or presence of calpain inhibiting compounds as described in "Assay of LDH" above. At the end of the 4-hour post-NMDA incubation, cells were lysed with 300 μL buffer containing 20 mM Tris-HCL (pH 7.4 at 4° C.), 1% SDS, 5 mM EGTA, 5 mM EDTA, 1 mM DTT, and various protease inhibitors. Total cellular protein was precipitated by 100 μL of 100% trichloroacetic acid. The samples were centrifuged and the pelleted protein solubilized with 50 μl of 3M Tris base. […] The blots were then probed with rabbit antibrain spectrin antibody (primary antibody) followed by alkaline phosphatase-conjugated goat antirabbit immunoglobulin G antibody (secondary antibody). […] The SBP were quantified by densitometry (BioRad Model 620).

[3] = Table I, 4 mM CaCl2, pH 7.4, 25° C., 60 minutes, read-out: Inhibitory Activity Against Human Calpain I IC50
[4] = Table II (selectivity), read-out: Inhibitory Activity of Thiol-Acrylates, Calpain (IC50)

T1 sequence (P00800 233-548): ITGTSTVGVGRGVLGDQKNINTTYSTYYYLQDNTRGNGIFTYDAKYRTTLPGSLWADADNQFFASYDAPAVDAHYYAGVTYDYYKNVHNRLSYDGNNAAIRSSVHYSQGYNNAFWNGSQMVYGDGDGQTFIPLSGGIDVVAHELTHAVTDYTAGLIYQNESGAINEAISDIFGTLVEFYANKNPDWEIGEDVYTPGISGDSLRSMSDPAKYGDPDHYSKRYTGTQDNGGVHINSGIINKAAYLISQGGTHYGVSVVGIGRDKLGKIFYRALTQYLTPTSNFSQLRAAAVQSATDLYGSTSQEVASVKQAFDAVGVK

Compound	IC50 (calpain I; [3]) [µM]	other results
O=C(O)/C(S)=C/c1ccc(I)cc1 [Example 8, (Z)-2-propenoic Acid, 3-(4-iodophenyl)-2-mercapto]		IC50 (thermolysin): 204 µM; IC50 (papain): > 500 µM; IC50 (trypsin): > 500 µM; IC50 (calpain I): 0.36 µM
CC(C)(C)c1ccc(/C=C(\S)C(=O)O)cc1 [Example 40, (Z)-2-propenoic Acid, 3-[4-(1,1-dimethylethyl)phenyl]-2-mercapto]	7.8	
Cc1cc(/C=C(\S)C(=O)O)c(C)n1-c1ccccc1 [Example 38, (Z)-2-Propenoic Acid, 3-(2,5-dimethyl-1-phenyl-1H-pyrrol-3-yl)-2-mercapto]	13.6	
O=C(O)/C(S)=C/c1ccsc1 [Example 49, (Z)-2-Propenoic Acid, 3-(3-thienyl)-2-mercapto]	7.5	
O=C(O)/C(S)=C/c1cccs1 [Example 29]	4	
O=C(O)/C(S)=C/c1ccc(F)cc1 [Example 10, 2-Propenoic Acid, 3-(4-fluorophenyl)-2-mercapto]	1.2	
COc1ccc(/C(C)=C(\S)C(=O)O)cc1 [Example 14, (Z)-2-Butanoic Acid, 2-mercapto-3-(4-methoxyphenyl)]		inhibition at 200 µM (calpain I; at 200 μM, Table I, read-out: Inhibitory Activity Against Human Calpain I, % inhibition): 66%
COc1ccc2cc(/C=C(\S)C(=O)O)ccc2c1 [Example 34, (Z)-2-Propenoic Acid, 2-mercapto-3-(6-methoxy-2-naphthalenyl)]	2.1	
O=C(O)/C(S)=C/c1cc2ccccc2o1 [Example 31, (Z)-2-Propenoic Acid, 3-(2-benzofuranyl)-2-mercapto]	3.2	
O=C(O)/C(S)=C/c1ccc(CCc2ccccc2)cc1 [Example 47, (Z)-2-Propenoic Acid, 2-mercapto-3-[4-(2-phenylethyl)-phenyl]]	2.7	
O=C(O)/C(S)=C/c1cc2ccccc2[nH]1 [Example 25, 3-(2-indolyl)-2-mercapto-2-propenoic Acid]	1.7	
O=C(O)/C(S)=C/c1ccc2c(c1)Cc1ccccc1-2 [Example 53, 2-Propenoic Acid, 3-(9H-fluoren-2-yl)-2-mercapto]	1.6	
O=C(O)/C(S)=C/c1c(-c2ccc(Cl)cc2)[nH]c2ccccc12 [Example 42, (Z)-2-propenoic acid, 3-[2-(4-chlorophenyl)-1H-indol-3-yl]-2-mercapto]	6	
O=C(O)/C(S)=C/c1cccc2ccccc12 [Example 20, (Z)-2-Propenoic Acid, 2-mercapto-3-(1-naphthalenyl)]	3.6	
O=C(O)/C(S)=C/c1c[nH]c2ccc(F)cc12 [Example 4, 3-(5-fluoro-3-indolyl)-2-mercapto-2-propenoic Acid]	0.45	
O=C(O)/C(S)=C/c1ccc(OCc2ccccc2)cc1 [Example 18, (Z)-2-Propenoic Acid, 2-mercapto-3-[4-(phenylmethoxy)phenyl]]	1.8	block of NMDA-induced LDH release (in words) [1]: partially blocked
O=C(O)/C(S)=C/c1ccccc1 [Example 51, 2-Propenoic Acid, 2-mercapto-3-phenyl]	5.9	IC50 (thermolysin): 367 µM; IC50 (papain): > 200 µM; IC50 (trypsin): > 200 µM; IC50 (calpain I; [4]): 5.9 µM
O=C(O)/C(S)=C/c1ccc(-c2ccccc2)cc1 [Example 16, (Z)-2-Propenoic Acid, 3-[1,1'-biphenyl)-4-yl-2-mercapto]	3	
O=C(O)/C(S)=C/c1ccc2c(c1)CCCC2 [Example 44, (Z)-2-propenoic acid, 2-mercapto-3-(5,6,7,8-tetrahydro-2-naphthalenyl)]	1.7	
C[C@]12N[C@H](Cc3ccccc31)c1ccccc12 [MK-801, reference compound]		block of NMDA-induced LDH release (in words) [1]: blockable; spectrin breakdown product (SBP) formation, 150 kDa and 145 kDa (in words) [2]: inhibited the SBP formation
CN[C@H](CC(=O)O)C(=O)O [NMDA, N-methyl-D-aspartate, reference compound]		LDH release from the cells ([1]; 500 μM NMDA 30 minutes, additional 4 hours): about 210 unit/mL
CCn1c2ccccc2c2cc(/C=C(\S)C(=O)O)ccc21 [Example 12]	1.1	
O=C(O)/C(S)=C/c1cc2ccccc2c2ccccc12 [Example 27, 3-(9--phenanthyl)-2-mercapto-2-propenoic Acid]	3.1	
O=C(O)/C(S)=C/c1ccc2c(c1)OCO2 [Example 36, (Z)-2-propenoic acid, 3-(5-benzodioxoyl)-2-mercapto]	1.2	
O=C(O)/C(S)=C/c1c[nH]c2ccccc12 [Example 22, (Z)-2-Propenoic Acid, 3-(1H-indol-3-yl)-2-mercapto]	1.3	IC50 (thermolysin): 248 µM; spectrin breakdown product (SBP) formation, 150 kDa and 145 kDa (in words) [2]: partially blocked SBP formation; IC50 (papain): > 200 µM; IC50 (trypsin): > 200 µM; IC50 (calpain I; [4]): 1.3 µM
